# Patent publication US12128045B2, “Platinum-resistant cancer treatment” (BTG International Limited, priority 2017, dated 2024)
# What was measured:
# [1] = test system: high grade serous ovarian cancer (HGSOC); assay: Phase I trial EudraCT3941 (Example 1): tumour response (RECIST partial responses); format: in vivo, human
# Text: (§1) Methods: A 3+3 dose escalation design was used and two IV schedules were explored. Schedule A, weekly dosing (QW) and schedule B, once every 2 weeks dosing (Q2W). A cycle consisted of 4 weeks and treatment was stopped after 6 cycles in both schedules. An expansion cohort to evaluate clinical activity in patients with FR-α overexpressing high grade serous ovarian cancer (HGSOC) was initiated.
# [2] = target: thymidylate synthase (TS); conditions: read-out: Ki against isolated target thymidine synthase; cited from earlier work
# [3] = Half life on administration to man; conditions: in vivo
# [4] = Phase I trial EudraCT3941 (Example 1): safety and toxicity; format: in vivo, human
# Text: as §1
# [5] = target: T1, folylpolyglutamate synthase (FPGS) (Homo sapiens, UniProt Q05932); conditions: cited from earlier work
# T1 sequence (Q05932 43-587): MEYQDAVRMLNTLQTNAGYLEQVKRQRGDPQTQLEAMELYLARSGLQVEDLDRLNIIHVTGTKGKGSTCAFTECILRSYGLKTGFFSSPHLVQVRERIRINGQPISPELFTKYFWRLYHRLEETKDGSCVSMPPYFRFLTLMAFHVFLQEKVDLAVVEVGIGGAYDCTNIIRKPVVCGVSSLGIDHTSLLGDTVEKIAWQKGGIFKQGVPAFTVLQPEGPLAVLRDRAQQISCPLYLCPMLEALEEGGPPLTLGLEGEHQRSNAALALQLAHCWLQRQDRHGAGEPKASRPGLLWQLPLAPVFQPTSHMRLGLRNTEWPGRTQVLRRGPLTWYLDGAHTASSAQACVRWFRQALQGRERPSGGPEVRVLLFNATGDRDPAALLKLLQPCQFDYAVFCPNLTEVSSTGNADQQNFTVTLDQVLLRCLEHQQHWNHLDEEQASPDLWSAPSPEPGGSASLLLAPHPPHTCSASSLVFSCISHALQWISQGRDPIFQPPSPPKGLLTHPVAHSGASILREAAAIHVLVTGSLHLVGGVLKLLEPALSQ
# [6] = test system: reduced folate carrier (RFC); conditions: except at high concentrations; Gibbs et al., 2005; cited from earlier work
# [7] = Phase I trial EudraCT3941 (Example 1): pharmacokinetics; format: in vivo, human
# Text: as §1
# [8] = target: alpha-folate receptor (FR-α) (Homo sapiens, UniProt P15328); conditions: relative to folic acid; Theti et al., 2003; cited from earlier work
# Sequence of alpha-folate receptor (FR-α) (P15328 25-234, species assumed): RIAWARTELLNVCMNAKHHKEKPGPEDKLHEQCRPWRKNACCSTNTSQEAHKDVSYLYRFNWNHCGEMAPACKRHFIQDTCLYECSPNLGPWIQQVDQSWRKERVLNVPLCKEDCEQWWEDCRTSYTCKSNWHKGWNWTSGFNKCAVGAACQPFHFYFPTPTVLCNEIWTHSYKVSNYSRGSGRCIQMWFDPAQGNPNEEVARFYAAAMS
# [9] = in vivo; cited from earlier work
# [10] = test system: tumour cell proliferation; assay: Inhibition of tumour cell proliferation in vitro; format: cell-based
# thymidylate synthase = target: T2, thymidylate synthase (Homo sapiens, UniProt P04818); assay: FLT PET imaging of thymidylate synthase inhibition in trial patients; conditions: in vivo
# T2 construct: from tissue; host or cells: tumour tissue of trial patients, in vivo
# T2 sequence (P04818 2-313 limits assumed): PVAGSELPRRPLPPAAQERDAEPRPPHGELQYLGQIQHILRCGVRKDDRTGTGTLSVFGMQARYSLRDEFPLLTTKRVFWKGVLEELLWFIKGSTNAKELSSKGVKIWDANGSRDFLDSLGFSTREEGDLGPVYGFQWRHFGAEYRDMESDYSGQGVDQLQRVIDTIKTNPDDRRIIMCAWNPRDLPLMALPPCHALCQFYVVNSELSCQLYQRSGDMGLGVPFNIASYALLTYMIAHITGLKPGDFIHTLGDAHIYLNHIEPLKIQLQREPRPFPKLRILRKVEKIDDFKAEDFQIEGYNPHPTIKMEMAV
# Text: 3827-3834. 2008 (Pillai et al).
# [11] = in vivo; cited from earlier work; remark: listed apart in the source
# [12] = test system: platinum resistant epithelial ovarian cancer; conditions: 6 mg/kg every three weeks, cited from earlier work
# [13] = test system: platinum-sensitive epithelial ovarian cancer; conditions: 1,100 patient Phase III, with paclitaxel and carboplatin; cited from earlier work
# [14] = expansion cohort, archival samples analysed
compound,measurement,setting,value
"C#CCN(c1ccc(C(=O)N[C@@H](CCC(=O)N[C@H](CCC(=O)O)C(=O)O)C(=O)O)cc1)[C@H]1CCc2cc3nc(CO)[nH]c(=O)c3cc21 [BTG945, N—{N-{4-[N-((6S)-2-Hydroxymethyl-4-oxo-3,4,7,8-tetrahydro-6H-cyclo-penta[g]quinazolin-6-yl)-N-(prop-2-ynyl)amino]benzoyl}-L-γ-glutamyl}-D-glutamic acid]",patients with HGSOC with partial responses (PRs),[1]; dose escalation cohort,5 patients
same,patients with PRs,"[1]; expansion cohort, HGSOC, 12 mg/m^2 Q2W",5/11
same,AFR+ve patients with PR,[1]; [14],4/4
same,AFR−ve patients who did not have a PR,[1]; [14],4/4
same,Ki,[2],1.2 nM
same,half life levels on administration to man,[3],unusually long
same,"grade 3-4 diarrhea, mucositis or neutropenia","[4]; human, in vivo, 24 weeks","No grade 3-4 diarrhea, mucositis or neutropenia"
same,incidence of dysgeusia,"[4]; human, in vivo, 24 weeks",12%
same,incidence of fatigue,"[4]; human, in vivo, 24 weeks",36%
same,incidence of nausea,"[4]; human, in vivo, 24 weeks",21%
same,cases of suspected drug-related drop in Dlco,[4]; in vivo,No cases
same,"conventional toxicities of cytotoxic chemotherapy (myelotoxicity, nephrotoxicity, neurotoxicity)",[4]; in vivo,not observed
same,dose limiting effects other than BOOP,[4]; in vivo,not seen
same,occurrence of treatment limiting BOOP,[4]; in vivo,without occurrence
same,"side effects associated with α-folate receptor antibody conjugates (diarrhoea, blurred vision, nausea)",[4]; in vivo,not observed
same,"side effects normally associated with thymidine synthase inhibitors (neutropenia, diarrhoea, hair loss)",[4]; in vivo,not observed
same,dose limiting toxicity,"[4]; schedule A, weekly IV dosing (QW), 1-6 mg/m^2",G3 cellulitis
same,dose limiting toxicity,"[4]; schedule B, IV once every 2 weeks (Q2W), 2-12 mg/m^2",no dose limiting toxicity
same,substrate for FPGS,[5],not a substrate
same,affinity for reduced folate carrier (RFC),[6],negligible affinity
same,period for which concentrations above 0.5 μM were achieved,[7]; doses above 6 mg/m^2,72 h
same,period for which concentrations between 0.05-1 μM were achieved,[7]; doses of 4 mg/m^2 and above,48 h
same,AUC,"[7]; human, in vivo, iv, 12 mg/m2",85.2 µg·h/mL
same,Cmax,"[7]; human, in vivo, iv, 12 mg/m2",4.95 µg/mL
same,half-life,"[7]; human, in vivo, iv, 12 mg/m2",26 h
same,affinity for α-FR as % of folic acid (FA),[8],70%
same,dose at which toxicity occurred (incidence of BOOP),[9],45 mg/m^2
same,inhibition of tumour cell proliferation in vitro,[10],concentration and time-dependent inhibition
same,thymidylate synthase inhibition by FLT PET imaging,thymidylate synthase,Evidence of thymidylate synthase inhibition
Nc1nc2[nH]cc(CCc3ccc(C(=O)N[C@@H](CCC(=O)O)C(=O)O)cc3)c2c(=O)[nH]1 [pemetrexed],substrate for FPGS,[5],excellent substrates
same,half-life in plasma,[11],fairly short
"Cc1nc2ccc(CN(C)c3ccc(C(=O)N[C@@H](CCC(=O)O)C(=O)O)s3)cc2c(=O)[nH]1 [Raltitrexed, raltitrexed]",substrate for FPGS,[5],excellent substrates
same,half-life in plasma,[11],fairly short
"C#CCN(Cc1cc2c(=O)[nH]c(C)nc2cc1C)c1ccc(C(=O)N[C@@H](CCc2nnn[nH]2)C(=O)O)c(F)c1 [Plevitrexed, plevitrexed]",substrate for FPGS,[5],not a substrate
same,half-life in plasma,[11],long
"IMGN853: Antibody-drug conjugate, FR-α targeted",share of patients with three or less prior lines of therapy showing this outcome,[12],39%
same,PFS,[12]; patients with three or less prior lines of therapy,6.7 months
Farletuzumab: FR-α targeted monoclonal antibody,progression free survival (PFS),[13],failed to improve progression free survival
